Assays:
[1] = system: MEK1 phosphorylation in the A375 human melanoma cell line; test: cells; settings: A-375, read-out: pMEK IC50
[2] = system: A375 cells; test: cells; settings: Homo sapiens, A-375, read-out: A375 Viability EC50
[3] = molecular target: RAF kinases (Homo sapiens, UniProt P04049); test: biochemical
Description: (§1) Competition binding assays used herein were developed, validated and performed as described in Fabian et al., Nature Biotechnology 2005, 23, 329-336. […] The liganded beads were blocked with excess biotin and washed with blocking buffer (SeaBlock (Pierce), 1% BSA, 0.05% Tween 20, 1 mM DTT) to remove unbound ligand and to reduce non-specific binding. […] Test compounds were prepared as 100× stocks in DMSO and rapidly diluted into the aqueous environment. DMSO was added to control assays lacking a test compound. Primary screen interactions were performed in polypropylene 384-well plates in a final volume of 34 μt, while Kd determinations were performed in polystyrene 96-well plates in a final volume of 135 pt. […] The kinase concentration in the eluates was measured by quantitative PCR. Each kinase was tested individually against each compound. Kds were determined using eleven serial threefold dilutions. A selectivity score, which is a quantitative measure of selectivity of a compound against a panel of enzymes, may be calculated for a compound by dividing the number of enzymes for which a compound meets a set criteria, (for example, a binding constant of 100 nM or less), by the total number of enzymes tested. […] (Note, for those compounds tested in a larger kinase panel, as indicated by an asterisk (*) next to the S35 score, the divisor is 321 (i.e. the larger panel contains 321 distinct kinases, excluding mutant variants.)).

[4] = molecular target: RAF kinases (Homo sapiens, UniProt P15056); test: biochemical
Description: as §1

[5] = molecular target: RAF kinases (Homo sapiens, UniProt P15056, V600E); settings: read-out: BRAF V600E Kd; BRAF V600E
Sequence of RAF kinases (Homo sapiens, UniProt P15056, V600E) (P15056 whole entry V600E): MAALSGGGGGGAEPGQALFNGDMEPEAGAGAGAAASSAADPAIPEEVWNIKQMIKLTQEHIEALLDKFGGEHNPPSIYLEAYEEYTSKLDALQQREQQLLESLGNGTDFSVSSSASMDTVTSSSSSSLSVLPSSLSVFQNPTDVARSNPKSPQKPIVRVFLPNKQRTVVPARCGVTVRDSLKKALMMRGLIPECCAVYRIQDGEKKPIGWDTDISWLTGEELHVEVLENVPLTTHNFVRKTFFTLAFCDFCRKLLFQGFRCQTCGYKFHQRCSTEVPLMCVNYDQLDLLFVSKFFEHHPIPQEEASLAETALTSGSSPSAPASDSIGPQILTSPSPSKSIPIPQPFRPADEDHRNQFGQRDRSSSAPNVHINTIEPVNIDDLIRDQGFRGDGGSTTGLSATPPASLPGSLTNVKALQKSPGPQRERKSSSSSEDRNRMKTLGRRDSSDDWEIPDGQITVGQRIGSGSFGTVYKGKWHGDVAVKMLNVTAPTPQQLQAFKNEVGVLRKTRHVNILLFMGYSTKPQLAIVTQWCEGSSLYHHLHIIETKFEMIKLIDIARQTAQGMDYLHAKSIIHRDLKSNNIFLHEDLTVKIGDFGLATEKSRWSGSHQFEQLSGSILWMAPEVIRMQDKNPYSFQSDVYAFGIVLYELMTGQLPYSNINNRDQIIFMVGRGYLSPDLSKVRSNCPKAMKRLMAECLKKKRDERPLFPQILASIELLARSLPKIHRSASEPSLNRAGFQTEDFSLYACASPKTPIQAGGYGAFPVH
Description: as §1

Sequence of RAF kinases (Homo sapiens, UniProt P04049) (P04049 whole entry): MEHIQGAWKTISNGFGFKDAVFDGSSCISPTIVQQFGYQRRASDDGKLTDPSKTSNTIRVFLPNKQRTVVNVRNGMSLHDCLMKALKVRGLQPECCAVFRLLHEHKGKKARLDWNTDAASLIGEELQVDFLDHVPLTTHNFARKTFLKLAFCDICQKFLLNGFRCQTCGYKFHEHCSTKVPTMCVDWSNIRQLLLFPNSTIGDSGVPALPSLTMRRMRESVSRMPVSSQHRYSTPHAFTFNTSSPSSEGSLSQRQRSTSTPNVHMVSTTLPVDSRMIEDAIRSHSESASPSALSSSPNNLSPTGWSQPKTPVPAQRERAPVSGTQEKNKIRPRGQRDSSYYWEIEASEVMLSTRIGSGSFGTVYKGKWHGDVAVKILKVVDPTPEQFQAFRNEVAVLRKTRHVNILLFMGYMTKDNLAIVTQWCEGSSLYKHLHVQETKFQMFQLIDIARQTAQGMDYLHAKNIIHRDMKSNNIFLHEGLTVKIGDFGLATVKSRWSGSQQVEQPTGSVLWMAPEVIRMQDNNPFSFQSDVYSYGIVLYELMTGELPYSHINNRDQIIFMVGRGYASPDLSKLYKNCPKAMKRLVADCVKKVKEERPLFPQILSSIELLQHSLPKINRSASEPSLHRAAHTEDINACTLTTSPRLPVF
Sequence of RAF kinases (Homo sapiens, UniProt P15056) (P15056 whole entry): as the sequence (P15056 whole entry V600E) above, with E600V counted along it

Structure (SMILES) | IC50 [1] [nM] | EC50 [2] [nM] | Kd [3] [nM] | Kd [4] [nM] | Kd [5] [nM]
COc1cc2c(Oc3cccc(NC(=O)Nc4cc(C(C)(C)C)on4)c3)ncnc2cc1O[C@@H]1CCN(C)C1 [Ex 99, (R)-1-(5-tert-butylisoxazol-3-yl)-3-(3-(6-methoxy-7-(1-methylpyrrolidin-3-yloxy)quinazolin-4-yloxy)phenyl)urea mono acetate] | 250 to 500 | > 1000 | 250 to 500 | 250 to 500 | 
COc1cc2ncnc(Oc3cccc(NC(=O)Nc4cc(C(C)(C)C)on4)c3)c2cc1OC[C@H](O)CN1CCN(C)CC1 [Ex 112, (R)-1-(5-tert-butylisoxazol-3-yl)-3-(3-(6-(2-hydroxy-3-(4-methylpiperazin-1-yl)propoxy)-7-methoxyquinazolin-4-yloxy)phenyl)urea] | 250 to 500 | 500 to 1000 | 250 to 500 | 500 to 1000 | 
COCCOc1cc2ncnc(Oc3cccc(NC(=O)Nc4cccc(C(C)(C)C)c4)c3)c2cc1OC [Ex 119, 1-(3-tert-butylphenyl)-3-(3-(6-methoxy-7-(2-methoxyethoxy)quinazolin-4-yloxy)phenyl)urea] | 250 to 500 | > 1000 | 250 to 500 | 250 to 500 | 
COc1cc2ncnc(Oc3cccc(NC(=O)Nc4cc(C(F)(F)F)ncn4)c3)c2cc1OC [Ex 146, 1-(3-(6,7-dimethoxyquinazolin-4-yloxy)phenyl)-3-(6-(trifluoromethyl)pyrimidin-4-yl)urea] | > 1000 | > 1000 | 250 to 500 | 250 to 500 | 
COc1cc2ncnc(Oc3cccc(NC(=O)Nc4cc(C(C)(F)F)no4)c3)c2cc1OC [Ex 152, 1-(3-(1,1-difluoroethyl)isoxazol-5-yl)-3-(3-(6,7-dimethoxyquinazolin-4-yloxy)phenyl)urea] | 500 to 1000 | 500 to 1000 | 250 to 500 | 250 to 500 | 
COc1cc2ncnc(Sc3cccc(NC(=O)Nc4cc(C(C)(C)C)nn4C)c3)c2cc1OC [Ex 157, 1-(3-tert-butyl-1-methyl-1H-pyrazol-5-yl)-3-(3-(6,7-dimethoxyquinazolin-4-ylthio)phenyl)urea] | < 250 | > 1000 | 250 to 500 | 500 to 1000 | 
COc1cc2ncnc(Sc3cccc(NC(=O)Nc4cc(C(C)(CF)CF)no4)c3)c2cc1OC [Ex 160, 1-[3-(1,3-difluoro-2-methylpropan-2-yl)isoxazol-5-yl]-3-[3-(6,7-dimethoxyquinazolin-4-ylthio)phenyl]urea] | < 250 | > 1000 | 250 to 500 | 500 to 1000 | 
COc1cc2ncnc(Oc3cccc(NC(=O)Nc4ccc(C(C)(C)C)cc4)c3)c2cc1OC [Ex 173, 1-(4-tert-butylphenyl)-3-(3-(6,7-dimethoxyquinazolin-4-yloxy)phenyl)urea] | 250 to 500 | > 1000 | 250 to 500 | 500 to 1000 | 
COc1cc2ncnc(Oc3cccc(NC(=O)Nc4ccc(Cl)c(C(F)(F)F)c4)c3)c2cc1OC [Ex 176, 1-(4-chloro-3-(trifluoromethyl)phenyl)-3-(3-(6,7-dimethoxyquinazolin-4-yloxy)phenyl)urea] | 250 to 500 | > 1000 | 250 to 500 | 500 to 1000 | 
COc1cccc(NC(=O)Nc2cccc(Oc3ncnc4cc(OC)c(OC)cc34)c2)c1 [Ex 178, 1-(3-(6,7-dimethoxyquinazolin-4-yloxy)phenyl)-3-(3-methoxyphenyl)urea] | > 1000 | > 1000 | 250 to 500 | 500 to 1000 | 
CCOc1cccc(NC(=O)Nc2cccc(Oc3ncnc4cc(OC)c(OC)cc34)c2)c1 [Ex 179, 1-(3-(6,7-dimethoxyquinazolin-4-yloxy)phenyl)-3-(3-ethoxyphenyl)urea] | > 1000 | > 1000 | 250 to 500 | 500 to 1000 | 
COCCOc1cc2ncnc(Oc3cccc(NC(=O)Nc4cc(C(C)(C)C)no4)c3)c2cc1OC [Ex 202, 1-(3-tert-butylisoxazol-5-yl)-3-(3-(6-methoxy-7-(2-methoxyethoxy)quinazolin-4-yloxy)phenyl)urea] | < 250 | > 1000 | 250 to 500 | 250 to 500 | 
COCCOc1cc2ncnc(Oc3cccc(NC(=O)Nc4cc(C5CCCC5)no4)c3)c2cc1OC [Ex 207, 1-(3-cyclopentylisoxazol-5-yl)-3-(3-(6-methoxy-7-(2-methoxyethoxy)quinazolin-4-yloxy)phenyl)urea] | > 1000 | > 1000 | 250 to 500 | 500 to 1000 | < 250
COCCOc1cc2ncnc(Oc3cccc(NC(=O)Nc4cc(C(C)C)no4)c3)c2cc1OC [Ex 215, 1-(3-isopropylisoxazol-5-yl)-3-(3-(6-methoxy-7-(2-methoxyethoxy)quinazolin-4-yloxy)phenyl)urea] | 500 to 1000 | > 1000 | 250 to 500 | 250 to 500 | < 250
COCCOc1cc2ncnc(Sc3cccc(NC(=O)Nc4cc(C(C)(CF)CF)on4)c3)c2cc1OC [Ex 230, 1-[5-(1,3-difluoro-2-methylpropan-2-yl)isoxazol-3-yl]-3-{3-[6-methoxy-7-(2-methoxyethoxy)quinazolin-4-ylthio]phenyl}urea] | < 250 | 250 to 500 | 250 to 500 | 500 to 1000 | < 250
COCCOc1cc2ncnc(Sc3cccc(NC(=O)Nc4cc(C(C)(C)F)no4)c3)c2cc1OC [Ex 234, 1-(3-(2-fluoropropan-2-yl)isoxazol-5-yl)-3-(3-(6-methoxy-7-(2-methoxyethoxy)quinazolin-4-ylthio)phenyl)urea] | < 250 | > 1000 | 250 to 500 | 250 to 500 | < 250
COc1cc2ncnc(Sc3cccc(NC(=O)Nc4ccc(OC)c(C(F)(F)F)c4)c3)c2cc1OCCCN1CCS(=O)(=O)CC1 [Ex 246, 1-(4-methoxy-3-(trifluoromethyl)phenyl)-3-(3-(7-methoxy-6-(3-(4,4-dioxothiomorpholino)propoxy)quinazolin-4-ylthio)phenyl)urea] | < 250 | 500 to 1000 | 250 to 500 | 250 to 500 | < 250
COCCOc1cc2ncnc(Sc3cccc(NC(=O)Nc4cc(C(C)(C)C)no4)c3)c2cc1OCCOC [Ex 247, 1-(3-(6,7-bis(2-methoxyethoxy)quinazolin-4-ylthio)phenyl)-3-(3-tert-butylisoxazol-5-yl)urea] | < 250 | > 1000 | 250 to 500 | 250 to 500 | < 250
COc1cc2ncnc(Oc3cccc(NC(=O)Nc4cnn(C(C)(C)C)c4)c3)c2cc1OC [Ex 252, 1-(1-tert-butyl-1H-pyrazol-4-yl)-3-(3-(6,7-dimethoxyquinazolin-4-yloxy)phenyl)urea] | > 1000 | > 1000 | 250 to 500 | 250 to 500 | < 250
COc1cc2ncnc(Oc3cccc(NC(=O)Nc4cc(C(F)(F)F)nn4-c4ccccc4)c3C)c2cc1OC [Ex 291, 1-(3-(6,7-Dimethoxyquinazolin-4-yloxy)-2-methylphenyl)-3-(1-phenyl-3-(trifluoromethyl)-1H-pyrazol-5-yl)urea] | 500 to 1000 | > 1000 | 250 to 500 | 500 to 1000 | < 250
COc1cc2ncnc(Oc3cccc(NC(=O)Nc4cc(C(C)(C)C)nn4-c4cnccc4C)c3)c2cc1OC [Ex 303, 1-(3-tert-butyl-1-(4-methylpyridin-3-yl)-1H-pyrazol-5-yl)-3-(3-(6,7-dimethoxyquinazolin-4-yloxy)phenyl)urea] | < 250 | < 250 | 250 to 500 | 500 to 1000 | < 250
COc1ccc(-n2nc(C(C)(C)C)cc2NC(=O)Nc2cccc(Oc3ncnc4cc(OC)c(OC)cc34)c2)cc1 [Ex 361, 1-(3-tert-butyl-1-(4-methoxyphenyl)-1H-pyrazol-5-yl)-3-(3-(6,7-dimethoxyquinazolin-4-yloxy)phenyl)urea] | < 250 | > 1000 | 500 to 1000 | 250 to 500 | < 250
COc1cc2ncnc(Oc3cccc(NC(=O)Nc4cc(C(C)(C)C)nn4-c4ccccc4F)c3)c2cc1OC [Ex 372, 1-(3-tert-butyl-1-(2-fluorophenyl)-1H-pyrazol-5-yl)-3-(3-(6,7-dimethoxyquinazolin-4-yloxy)phenyl)urea] | < 250 |  | 500 to 1000 | 500 to 1000 | < 250
CCOc1cc2ncnc(Oc3cccc(NC(=O)Nc4cc(C(C)(C)C)nn4-c4ccccc4)c3)c2cc1OC [Ex 387, 1-(3-tert-butyl-1-phenyl-1H-pyrazol-5-yl)-3-(3-(7-ethoxy-6-methoxyquinazolin-4-yloxy)phenyl)urea] | < 250 |  | 500 to 1000 | 500 to 1000 | < 250
CCOc1cc2c(Oc3cccc(NC(=O)Nc4cc(C(C)(C)C)nn4-c4ccccc4)c3)ncnc2cc1OC [Ex 390, 1-(3-tert-butyl-1-phenyl-1H-pyrazol-5-yl)-3-(3-(6-ethoxy-7-methoxyquinazolin-4-yloxy)phenyl)urea] | < 250 |  | 500 to 1000 | 250 to 500 | < 250
COc1cc2c(Oc3cccc(NC(=O)Nc4cc(C(F)(F)F)nn4-c4ccccc4)c3)ncnc2cc1OCCN1CCOCC1 [Ex 396, 1-(3-(6-Methoxy-7-(2-morpholinoethoxy)quinazolin-4-yloxy)phenyl)-3-(1-phenyl-3-(trifluoromethyl)-1H-pyrazol-5-yl)urea] | 500 to 1000 | 500 to 1000 | 500 to 1000 | 500 to 1000 | < 250
CCOc1cc2ncnc(Oc3cccc(NC(=O)Nc4cc(C(F)(F)F)nn4-c4ccccc4)c3)c2cc1OC [Example 384, 1-(3-(7-ethoxy-6-methoxyquinazolin-4-yloxy)phenyl)-3-(1-phenyl-3-(trifluoromethyl)-1H-pyrazol-5-yl)urea] | 500 to 1000 | 250 to 500 | 250 to 500 | 500 to 1000 | < 250
